Structures are written as SMILES.

The test system of the assay is infants at 24 months. Nature of the assay: Associations of maternal plasma carotenoids concentrations with Bayley Scales of Infant and Toddler Development-III (BSID-III) scores, GUSTO cohort, linear regression. Format: in vivo, human. The conditions noted are these: for Cognitive β (95% CI) / Expressive Language β (95% CI) / Fine motor β (95% CI) / Gross motor β (95% CI) / Receptive language β (95% CI): per SD increment in log-transformed maternal plasma concentration. As for the experimental part: The Bayley Scales of Infant and Toddler Development, 3rd edition (BSID-III) 2006 was administered to infants at 24 (±1) months, in their homes when infants were likely to be alert. This is a standardized test that assesses development of children 1-42 months of age in the following domains: cognitive, receptive and expressive language, and fine and gross motor skills. The test was administered in English, Chinese, Malay or Tamil languages depending on the child's dominant language.
Data for the present analysis were from the Growing Up in Singapore Towards healthy Outcomes (GUSTO) study a prospective mother-offspring cohort in Singapore (34). Detailed descriptions of the GUSTO study have been published Soh, et al 2014 Int. J Epidemiology 43(5):1401-9, which is hereby incorporated by reference. In brief, pregnant women (≥18 years) in their first trimester (<14 weeks) were recruited from the National University Hospital (NUH) and KK Women's and Children's Hospital (KKH) between June 2009 and September 2010. To be eligible for the study, the pregnant person had to: 1) be a Singapore citizen or permanent residents of Chinese, Malay or Indian ethnicity with homogenous parental ethnic background; 2) have an intention to deliver in the two hospitals and to reside in Singapore for the next five years; and 3) consent to donate birth tissues at delivery. Women receiving chemotherapy, psychotropic drugs or were diagnosed with type-1 diabetes were not eligible to participate. The GUSTO study has received ethical approval from the Institutional Review Board of NUH and KKH, and all procedures were conducted according to the guidelines laid down in the Declaration of Helsinki. Written informed consent was obtained from all participants at study recruitment.
A total of 1247 pregnant women participated at baseline. The present analysis included pregnant women who had singleton live births (n=1237), in whom plasma carotenoids concentrations were analyzed (n=701), and their offspring completed neurocognitive assessments at 24 months (n=361).
Administration and scoring was performed by research coordinators trained by the head psychologist from KKH in accordance to the manual. Raw test scores were used as age-specific norms were not available for our population.
Maternal plasma concentrations of individual carotenoids were summarized according to maternal and infant characteristics for the 419 mother-offspring pairs with data for the cognitive test. Differences in concentrations between groups were compared using non-parametric analyses Wilcoxon rank-sum and Kruskal-Wallis tests, as data were not normally distributed. Bonferroni post hoc analysis was performed to identify groups which differed if the Kruskal Wallis test was significant. The values for individual maternal plasma carotenoids were log-transformed, then converted to standard deviation scores (SDS) for easier interpretation. The BSID-III raw scores were also converted to SDS to facilitate comparison across the cognitive tests and domain scales.
Associations of each maternal plasma carotenoids with each BSID-III scale in the children were examined using linear regressions. Several statistical models were employed: Model 1 basic model with adjustment for infant's exact age at cognitive testing; Model 2 additional adjustment for maternal age, ethnicity, education, pre-pregnancy BMI, antenatal depression and anxiety levels (potential confounders). We considered Model 2 to be the main model. Further adjustment for infant gestational age, birth weight and breastfeeding duration was performed to examine if any associations found were acting through these factors (Model 3).
Missing data for covariates were imputed using multiple imputation technique with chained equations (20 times) for the following confounding variables: n=3 maternal education, n=7 EPDS, n=21 STAI, n=40 maternal pre-pregnancy BMI, n=5 infant birthweight and n=10 breastfeeding duration. […]

[1] abbreviates: Model 1 (adjusted for infant's age at testing), BSID-III at 24 months, n = 361.
Where [2] appears, read: Model 1, BSID-III at 24 months, n = 361.
Where [3] appears, read: Model 2 (Model 1 plus maternal age, ethnicity, education, pre-pregnancy BMI, parity, antenatal depression and anxiety), 24 months.
Setting [4] is: Model 2 (adjusted for confounders), 24 months.
Where [5] appears, read: Model 3 (Model 2 plus infant gestational age, birth weight, breastfeeding duration), 24 months.
Where [6] appears, read: Model 3 (also adjusted for potential mediators), 24 months.

For `CC(C)=CCC/C(C)=C/C=C/C(C)=C/C=C/C(C)=C/C=C/C=C(C)/C=C/C=C(C)/C=C/C=C(\C)CCC=C(C)C` [Lycopene, lycopene], under “24 months, result in words”, the “association of higher maternal concentrations with performance in expressive language” value is “associated with better performance”. In addition, the “association of higher maternal concentrations with receptive language” value (24 months, result in words) is “not with receptive language”. Further, the “Cognitive β (95% CI)” value under setting [1] amounted to 0.14 SD, the “Cognitive β (95% CI)” value under setting [3] is 0.12 SD and the “Cognitive β (95% CI)” value under setting [5] is 0.11 SD. Further, the “Expressive Language β (95% CI)” value reads like this: under setting [2], 0.15 SD; under setting [4], 0.15 SD; (Model 2 (adjusted for confounders), 24 months, listed as lycopene) 0.15 SD; under setting [6], 0.14 SD. Besides, the “Fine motor β (95% CI)” value runs as follows: under setting [2], 0.04 SD; under setting [4], 0.03 SD; under setting [6], 0.02 SD. Further, the “Gross motor β (95% CI)” value reads like this: under setting [2], 0.09 SD; under setting [4], 0.08 SD; under setting [6], 0.09 SD. The “Receptive language β (95% CI)” value is, setting by setting: under setting [2], 0.11 SD; under setting [4], 0.09 SD; under setting [6], 0.07 SD.
With `CC1=C(/C=C/C(C)=C/C=C/C(C)=C/C=C/C=C(C)/C=C/C=C(C)/C=C/C2=C(C)C[C@@H](O)CC2(C)C)C(C)(C)CCC1` [β-cryptoxanthin], under “BSID-III scales at 24 months, after adjustment for confounders, result in words”, the “association of higher maternal concentrations with cognitive development in infants” value is on record as “most consistently associated with better cognitive development”. Also, the “Cognitive β (95% CI)” value under setting [1] was found to be 0.21 SD, the “Cognitive β (95% CI)” value under setting [3] turned out to be 0.18 SD and the “Cognitive β (95% CI)” value under setting [5] is reported as 0.18 SD. The “Expressive Language β (95% CI)” value reads like this: under setting [2], 0.15 SD; under setting [4], 0.13 SD; under setting [6], 0.12 SD. In addition, the “Fine motor β (95% CI)” value is, setting by setting: under setting [2], 0.17 SD; under setting [4], 0.16 SD; under setting [6], 0.15 SD. For the same compound, the “Gross motor β (95% CI)” value stood at 0.17 SD under setting [2], 0.16 SD under setting [4] and 0.15 SD under setting [6]. Moreover, the “Receptive language β (95% CI)” value by setting is: under setting [2], 0.21 SD; under setting [4], 0.17 SD; under setting [6], 0.16 SD.
`CC1=C[C@H](O)CC(C)(C)[C@H]1/C=C/C(C)=C/C=C/C(C)=C/C=C/C=C(C)/C=C/C=C(C)/C=C/C1=C(C)C[C@@H](O)CC1(C)C` [Lutein, lutein]: the “Cognitive β (95% CI)” value is 0.03 SD under setting [1], −0.08 SD under setting [3] and −0.11 SD under setting [5]. Further, the “Expressive Language β (95% CI)” value under setting [2] is reported as 0.004 SD, the “Expressive Language β (95% CI)” value under setting [4] was −0.09 SD and the “Expressive Language β (95% CI)” value under setting [6] was −0.12 SD. For the same compound, the “Fine motor β (95% CI)” value was 0.01 SD under setting [2], 0.02 SD under setting [4] and −0.04 SD under setting [6]. For the same compound, the “Gross motor β (95% CI)” value under setting [2] worked out at 0.03 SD, the “Gross motor β (95% CI)” value under setting [4] is listed as −0.02 SD and the “Gross motor β (95% CI)” value under setting [6] is on record as −0.04 SD. In addition, the “Receptive language β (95% CI)” value was 0.08 SD under setting [2], −0.04 SD under setting [4] and −0.08 SD under setting [6].
With `CC1=C(/C=C/C(C)=C/C=C/C(C)=C/C=C/C=C(C)/C=C/C=C(C)/C=C/C2=C(C)CCCC2(C)C)C(C)(C)CCC1` [β-carotene], the “Cognitive β (95% CI)” value runs as follows: under setting [1], 0.22 SD; under setting [3], 0.16 SD; under setting [5], 0.13 SD. For the same compound, the “Expressive Language β (95% CI)” value under setting [2] is 0.18 SD, the “Expressive Language β (95% CI)” value under setting [4] came to 0.14 SD and the “Expressive Language β (95% CI)” value under setting [6] is listed as 0.10 SD. Besides, the “Fine motor β (95% CI)” value is, setting by setting: under setting [2], 0.14 SD; under setting [4], 0.12 SD; under setting [6], 0.10 SD. In addition, the “Gross motor β (95% CI)” value under setting [2] is reported as 0.15 SD, the “Gross motor β (95% CI)” value under setting [4] is reported as 0.14 SD and the “Gross motor β (95% CI)” value under setting [6] was 0.12 SD. For the same compound, the “Receptive language β (95% CI)” value reads like this: under setting [2], 0.23 SD; under setting [4], 0.15 SD; under setting [6], 0.11 SD.
Take `CC1=C(/C=C/C(C)=C/C=C/C(C)=C/C=C/C=C(C)/C=C/C=C(C)/C=C/C2=C(C)C[C@@H](O)CC2(C)C)C(C)(C)C[C@H](O)C1` [Zeaxanthin, zeaxanthin]: the “Cognitive β (95% CI)” value reads like this: under setting [1], 0.01 SD; under setting [3], 0.05 SD; under setting [5], 0.05 SD. Further, the “Expressive Language β (95% CI)” value by setting is: under setting [2], −0.09 SD; under setting [4], −0.05 SD; under setting [6], −0.04 SD. For the same compound, the “Fine motor β (95% CI)” value by setting is: under setting [2], 0.04 SD; under setting [4], 0.05 SD; under setting [6], 0.05 SD. The “Gross motor β (95% CI)” value runs as follows: under setting [2], 0.02 SD; under setting [4], 0.04 SD; under setting [6], 0.05 SD. The “Receptive language β (95% CI)” value is −0.10 SD under setting [2], −0.05 SD under setting [4] and −0.04 SD under setting [6].
As to `CC1=CCCC(C)(C)C1/C=C/C(C)=C/C=C/C(C)=C/C=C/C=C(C)/C=C/C=C(C)/C=C/C1=C(C)CCCC1(C)C` (stereo not drawn) [α-carotene], the “Cognitive β (95% CI)” value under setting [1] is recorded as 0.06 SD, the “Cognitive β (95% CI)” value under setting [3] is −0.01 SD and the “Cognitive β (95% CI)” value under setting [5] is −0.04 SD. The “Expressive Language β (95% CI)” value reads like this: under setting [2], 0.10 SD; under setting [4], 0.06 SD; under setting [6], 0.02 SD. Also, the “Fine motor β (95% CI)” value is given as 0.08 SD under setting [2], 0.06 SD under setting [4] and 0.05 SD under setting [6]. In addition, the “Gross motor β (95% CI)” value is reported as 0.08 SD under setting [2], 0.06 SD under setting [4] and 0.04 SD under setting [6]. The “Receptive language β (95% CI)” value is, setting by setting: under setting [2], 0.09 SD; under setting [4], 0.002 SD; under setting [6], −0.04 SD.

These data come from patent US20220079888A1, “PRE-NATAL BETA-CRYPTOXANTHIN BENEFITS CHILDREN” (AGENCY FOR SCIENCE, TECHNOLOGY AND RESEARCH (A*STAR), priority 2019, published 2022).
